Data published in publication PMC7583942, “Profiling Anticancer and Antioxidant Activities of Phenolic Compounds Present in Black Walnuts (Juglans nigra) Using a High-Throughput Screening Approach” (Molecules, 2020).
pIC50: −log10 of the molar value. Like-named read-outs stand apart in the source and are kept apart here.

Experiments:
[1] = test system: non-tumorigenic lung fibroblast cells (MRC-5); assay: Cell proliferation assay (CellTiter-Glo), MRC-5; type: cell-based, human; conditions: read-out: Half maximal inhibitory concentration (IC50), MRC-5 Cell Line
Description: (§1) An Nrf2 antioxidant response element (ARE) reporter HepG2 cell line, a stably transfected liver cell line expressing a firefly luciferase gene under the control of the ARE, was purchased from BPS Bioscience (San Diego, CA, USA). The human alveolar epithelial cell line A549 and the human lung fibroblast cell line MRC-5 were obtained from American Type Culture Collection (ATCC) (CCL-185 and CCL-171, ATCC, Manassas, VA, USA). The HepG2-ARE cells were grown in modified Eagle’s medium (MEM) supplemented with GlutaMAX, 10% fetal calf serum (FBS) and 600ug/mL Geneticin (Thermo Fisher Scientific, Waltham, MA, USA). […] All cells were grown and maintained at 37 °C in a humidified incubator with 5% CO2. Influence of the phenolic compounds on cell growth in the tumorigenic alveolar epithelial cells (A549) and non-tumorigenic lung fibroblast cell (MRC-5) cell lines was investigated using the CellTiter-Glo® cell viability assay kit (G7571, BioVision, CA, USA), according to the manufacturer’s instructions. […] The cultures were treated with the phenolic compounds and DL-Sulphorane (a known antiproliferative agent as a positive control) at 7 final concentrations (as mentioned above) and a vehicle (0.35% DMSO). After 72h of incubation, CellTiter-Glo Luminescent assay reagent (Promega) was dispensed at a volume of 10 µL per well into the 384-well plates for 10 min using the Matrix Wellmate dispenser (Thermo Fisher Scientific). The plates were allowed to incubate at room temperature for 20 min and then the luminescence was read using an Enspire microplate reader (Perkin Elmer Inc.) The relative cytotoxicity (%) of the phenolic compounds was calculated by dividing the specific luminescence absorbance of the treated sampled by the specific luminescence absorbance of the control sample and multiplying by 100. The control sample (in the presence of DMSO vehicle and without the compounds) was set at 100%. Non-linear regression analysis of data was performed to identify the dose-response curve for each compound. The IC50 values (half maximal inhibitory concentration) of each compound were determined from the dose-response curve for the A549 and MRC-5 cell lines using GraphPad Prism 8.

[2] = Total antioxidant capacity (TAC) colorimetric assay; conditions: for Fold-Increase Over Trolox: coefficient of compound model divided by coefficient of Trolox control; for total antioxidant capacity compared with the control (Trolox): in words; for Slope (in Trolox Equivalents): linear regression of dose-response, 7 concentrations, Cu2+ reagent, 1.5 h, absorbance 570 nm
Description: The antioxidant capacity of the phenolic compounds was evaluated using a total antioxidant capacity (TAC) colorimetric assay kit (K274-100, BioVision, CA, USA), according to the manufacturer’s instructions. Briefly, the phenolic compounds tested at 7 concentrations (as described above) were added to 384-well plates. Subsequently, Cu^2+ working solution (12.5 µL/ well) was added into the sample wells. The 384-well plates were incubated for 1.5 h at room temperature and the absorbance of the samples was then read at 570 nm using a microplate reader (Enspire, Perkin Elmer Inc., Waltham, MA, USA). Trolox was used to standardize the antioxidant capacity, as recommended by the manufacturer. A Trolox standard curve was included, and the total antioxidant capacity of the phenolic compounds was interpolated and expressed as Trolox equivalent (mM) from a seven-parameter logistic curve of the Trolox control using curve-fitting software.
For total antioxidant capacity analysis, linear regression analysis was performed to identify the linear regression equation for each compound using GraphPad Prism 8 (San Diego, CA, USA). The coefficient of the compound equation was compared with the coefficient of the Trolox control to determine the relative total antioxidant capacity of each compound. Fold-increase over Trolox was calculated by dividing the coefficient of the compound models by the coefficient of the Trolox control.

[3] = test system: antioxidant response element (ARE) in HepG2-ARE cells; assay: Antioxidant response element (ARE) activation, Steady-Glo luciferase reporter assay; type: cell-based, human; conditions: at high concentrations; did not induce ARE activation
Description: An Nrf2 antioxidant response element (ARE) reporter HepG2 cell line, a stably transfected liver cell line expressing a firefly luciferase gene under the control of the ARE, was purchased from BPS Bioscience (San Diego, CA, USA). The human alveolar epithelial cell line A549 and the human lung fibroblast cell line MRC-5 were obtained from American Type Culture Collection (ATCC) (CCL-185 and CCL-171, ATCC, Manassas, VA, USA). The HepG2-ARE cells were grown in modified Eagle’s medium (MEM) supplemented with GlutaMAX, 10% fetal calf serum (FBS) and 600ug/mL Geneticin (Thermo Fisher Scientific, Waltham, MA, USA). The tumorigenic alveolar epithelial cells (A549) and non-tumorigenic lung fibroblast cells (MRC-5) were grown in RPMI medium supplemented with 10% FBS. All cells were grown and maintained at 37 °C in a humidified incubator with 5% CO2.
The impact of the phenolic compounds on ARE activation in the HepG2-ARE cell line was evaluated using Steady-Glo® Luciferase assay system (E2510, Promega, Madison, WI, USA), following the manufacturer’s instructions. In brief, the HepG2 -ARE cells were seeded at a density of 10,000 cells/well in 384-well plates containing 50 µL of the complete media per well using a Multidrop Combi dispenser (Thermo Fisher Scientific, Waltham, MA, USA) and then the plate cultures were incubated at 37 °C in a 5% CO2 humidified incubator for 20 h. The HepG2-ARE cells were incubated with compounds for 18 h. The known ARE activator TBHQ was used as a positive control and the cells treated with 0.35% DMSO and without compounds tested served as a vehicle control. The cells in the absence of DMSO and the compounds were utilized for measuring the background luminescence. The reporter activity was measured by the addition of 25 µL Steady-Glo® luciferase assay reagent (Promega) for 30 min using the Multidrop Combi dispenser (Thermo Fisher Scientific). The luminescence intensities of the 384-well plates were read on Enspire microplate reader (Perkin Elmer Inc.). Percent cytotoxicity of compounds was normalized to the positive and negative controls on each assay plate.
The ARE fold induction of the compounds was measured by dividing the luminescence absorbance of the treatment by the specific luminescence absorbance of the control sample and multiplying by 100. The control sample (in the presence of DMSO vehicle and without the compounds) was set at 100%.

[4] = test system: tumorigenic alveolar epithelial cells (A549); assay: Cell proliferation assay (CellTiter-Glo), A549; type: cell-based, human; conditions: read-out: Half maximal inhibitory concentration (IC50), A549 Cell Line
Description: as §1

| Structure (SMILES) | pIC50 ([1]; 72 h incubation) | Fold-Increase Over Trolox [2] | total antioxidant capacity compared with the control (Trolox) [2] | Slope (in Trolox Equivalents) [2] | toxicity to HepG2-ARE cells [3] | pIC50 ([4]; 72 h incubation) | pIC50 ([1]; Homo sapiens, MRC5, 72 h incubation) | pIC50 ([4]; Homo sapiens, A549, 72 h incubation) |
| --- | --- | --- | --- | --- | --- | --- | --- | --- |
| O=C(OC[C@H]1O[C@@H](OC(=O)c2cc(O)c(O)c(O)c2)[C@H](OC(=O)c2cc(O)c(O)c(O)c2)[C@@H](OC(=O)c2cc(O)c(O)c(O)c2)[C@@H]1OC(=O)c1cc(O)c(O)c(O)c1)c1cc(O)c(O)c(O)c1 [Penta-O-galloyl-β-D-glucose] | 4.98 | 11.5 | higher | 0.01167 ± 5.756 × 10^−4 | toxic to cells | 5.21 | – | – |
| O=C(O[C@@H]1Cc2c(O)cc(O)cc2O[C@@H]1c1ccc(O)c(O)c1)c1cc(O)c(O)c(O)c1 [Epicatechin gallate] | – | 4.2 | higher | 0.004294 ± 1.570 × 10^−4 | toxic to cells | – | 4.19 | 4.18 |
